The values that follow come from patent US8293278B2, “Compositions and methods for inhibiting reproduction in tadpole shrimp” (Fresno California State University, priority 2008, dated 2012).

The subject of data set [1] is tadpole shrimp. The conditions noted are these: cited from earlier work.
Data set [2] has as its system tadpole shrimp. Kind of data set: Inhibition of sexual development in tadpole shrimp in laboratory conditions. Format: in vivo, Triops longicaudatus. The text has this:
As above, the dry base, the viscous additive, and the saline solution form the means for delivering the methyl farnesoate. In some embodiments, the composition may include a preparation comprising an effective amount of methyl farnesoate. In some embodiments, the composition can include a minimum of about 0.0001% methyl farnesoate by weight. In some embodiments, the composition can include a maximum of about 0.001% methyl farnesoate by weight. It has been determined that a concentration of as little as about 0.75 micrograms of methyl farnesoate per gram of the final composition is effective for inhibiting sexual development in tadpole shrimp in laboratory conditions. […] Thus, in some embodiments, compositions containing at least about […] micrograms of methyl farnesoate per gram of the final composition may be used to reduce sexual development in tadpole shrimp. However, it is to be appreciated that the percentage of methyl farnesoate by weight may be greater or less than these amounts in accordance with some embodiments of the present invention.

The nature of data set [3]: Chemical stability of methyl farnesoate (oxidation, heat during drying). The conditions noted are these: exposure to temperatures above about 50 degrees Celsius during drying. The class given is physicochemical. The source says: Recent scientific studies have shown that the hormone methyl farnesoate [methyl-(2E,6E,10E)-3,7,11-trimethyldodecatri-2,6,10-eneoate] […] Because methyl farnesoate oxidizes quickly and therefore will not build up large concentrations in the soil, and because it is a fatty acid, it is not considered to be harmful to the environment or adversely affect crop production. However, it is for these same reasons that administration of methyl farnesoate is difficult to administer.
In some further embodiments, the particles once formed can be dried to have a moisture content of, for example, about 5% and about 18%. Drying the particles assist in the efficient packaging, distribution, and dispensing of the particles. During such drying, the particles should not be exposed to extreme heat, which could reduce methyl farnesoate concentrations. […] Thus, in some embodiments, the pellets may be dried at a temperature below about 50 degrees Celsius. In some embodiments, relatively lower temperature drying can be enhanced by circulating ambient air over the particles.

For data set [4] the following is noted: exposed to oxidizing agents in the environment; cited from earlier work.

Take `COC(=O)/C=C(\C)CC/C=C(\C)CCC=C(C)C` [methyl farnesoate, methyl-(2E,6E,10E)-3,7,11-trimethyldodecatri-2,6,10-eneoate]: the “effect on growth, development and gamete production in pests such as tadpole shrimp” value in data set [1] (recent scientific studies) is “inhibits growth, development, and gamete production”. Moreover, the “effect on sexual development of tadpole shrimp” value in data set [1] (studies) is on record as “reduces sexual development”. The “concentration of methyl farnesoate effective for inhibiting sexual development in tadpole shrimp” value in data set [2] was “about 0.75 micrograms of methyl farnesoate per gram of the final composition”. Moreover, the “loss of methyl farnesoate concentration from the pellets on heating” value in data set [3] is listed as “significant loss”. In addition, the oxidative stability entry in data set [4] is “easily oxidized into farnesoic acid”.
